Source: article PMC11303563 (Communications Medicine, 2024)
“And” between values parts separate entries of the source, which are not always exact repeats. Equal values may be shown once.

How the values were obtained:
[1] = system: high-fat diet (HFD)-induced obesity model mice; assay: Hepatic lipid analysis (total lipid, triglyceride, total cholesterol) in HFD mice; format: in vivo, C57BL/6J mice; parameters: Liver TC (Fig. 4c), individual mouse values / Liver TG (Fig. 4d), individual mouse values / Total lipid, liver (Fig. 4e), individual mouse values / Mean Diff., ND vs. treated (Fig. 4c) / Mean Diff., Vehicle vs. treated (Fig. 4c) / Mean (Fig. 4c) / Mean Diff., ND vs. treated (Fig. 4d) / Mean Diff., Vehicle vs. treated (Fig. 4d) / Mean (Fig. 4d) / Mean 2 (group mean), Fig. 4e / Mean Diff., Vehicle vs. treatment, Fig. 4e: unit not given here; conditions: for Mean Diff., ND vs. treated (Fig. 4c) / Mean Diff., Vehicle vs. treated (Fig. 4c) / Mean Diff., ND vs. treated (Fig. 4d) / Mean Diff., Vehicle vs. treated (Fig. 4d): Tukey's multiple comparisons test; for Mean (Fig. 4c) / Mean (Fig. 4d) / Mean 2 (group mean), Fig. 4e: group mean, n=10; for Mean 2 (group mean), Fig. 4e: Tukey test details; for Mean Diff., Vehicle vs. treatment, Fig. 4e: vehicle mean 33.43 minus group mean
Description: Frozen livers were homogenized with chloroform-methanol (2:1), and the chloroform layer into which the liver lipids were extracted was collected. This extract was used to measure hepatic total lipid, triglyceride (TG), and total cholesterol (TC) contents. […] The total liver lipid content was measured according to the method described by Forch et al.[19].
Fig. 4 Effects of TH analogs on the accumulation of lipids in mice. […] After 3 weeks of injection, serum and liver tissues were collected, and the amount of serum cholesterol (a), serum triglycerides (b), liver cholesterol (c), liver triglycerides (d), and liver total lipids (e) were measured.

[2] = Serum ALT (hepatotoxicity); conditions: for Serum ALT, group mean (Mean 2): n 10, Vehicle mean […]; for serum ALT level vs vehicle: HFD mice, 3 weeks
Description: Male 7-week-old C57BL/6J mice were obtained from a local supplier (Nihon SLC, Shizuoka, Japan). The mice were individually housed in cages (Innocage; ORIENTAL GIKEN) at 23 °C with a 12-h-light–dark cycle starting at 08:00 a.m. […] The injection was prepared by dissolving the compounds in 0.5 N NaOH at a concentration of 100 mM, which was then further diluted with saline to a concentration of either 0.05 or 0.5 mM. The volume of the solution injected was determined based on the body weight of the animal, measured once a week, with 0.05 and 0.5 mM solutions injected at 0.1 and 1 µmol/kg day, respectively. Each group consisted of 10 animals, except for the ND (n = 8) and HFD with saline (vehicle, n = 9) groups. […] In the HFD-treated group, one animal was excluded from the analysis because its body weight was less than two standard deviations below the mean.
The blood samples were left to stand for 1 h at room temperature, then centrifuged at 4 °C for 15 min at 800 × g, and the supernatant was collected. […] Serum ALT levels were measured using Alanine Aminotransferase (ALT or SGPT) Activity Colorimetric/Fluorometric Assay Kit (BioVision) according to the manufacturer’s protocol.
Data are shown as the mean ± SEM (n = 8–10).

[3] = Heart weight (cardiac hypertrophy); conditions: for Heart weight, group mean (Mean 2): n 10, Vehicle mean 136.7; for heart weight vs vehicle: HFD mice, 3 weeks
Description: Male 7-week-old C57BL/6J mice were obtained from a local supplier (Nihon SLC, Shizuoka, Japan). The mice were individually housed in cages (Innocage; ORIENTAL GIKEN) at 23 °C with a 12-h-light–dark cycle starting at 08:00 a.m. […] The injection was prepared by dissolving the compounds in 0.5 N NaOH at a concentration of 100 mM, which was then further diluted with saline to a concentration of either 0.05 or 0.5 mM. The volume of the solution injected was determined based on the body weight of the animal, measured once a week, with 0.05 and 0.5 mM solutions injected at 0.1 and 1 µmol/kg day, respectively. Each group consisted of 10 animals, except for the ND (n = 8) and HFD with saline (vehicle, n = 9) groups.
After three weeks of daily injections, the body weights of the mice were measured. […] Subsequently, the animals were euthanized using deep isoflurane anesthesia, and the liver, heart, and epididymal adipose tissues were removed from the body. […] Hearts were weighed and fixed in 4% paraformaldehyde for 48 h in a cassette (Sakura Finetek Japan, Tokyo, Japan).
Heart weight was measured to assess heart toxicity. Data are shown as the mean ± SEM (n = 8–10). Significant differences among groups are indicated by asterisks (*P < 0.05, and ****P < 0.0001, one-way ANOVA with Tukey’s post-hoc test) (b).

[4] = system: high-fat diet (HFD)-induced obesity model mice; assay: Oil Red O staining of the liver section; format: in vivo, C57BL/6J mice; conditions: i.p. 1 µmol/kg·day, 3 weeks
Description: 20 µm sections were prepared from frozen liver tissues using Cryostat (CM3050 S, Leica). Sections were affixed to silane-coated glass slides, dried at room temperature, and stored at −80 °C until use. Before staining, sections were fixed with 1% PFA/1 × PBS, pH 7.4 (Gibco) for 5 min, immersed in 1 × PBS for 5 min, distilled water for 5 min, and 60% 2-propanol solution for 1 min. Oil Red O staining solution was prepared by mixing 0.36 g of Oil Red O (Sigma) with 120 mL of 2-propanol and 80 mL of distilled water, allowing the solution to stand at room temperature for 1 h, then filtering the solution and leaving it overnight at 37 °C. Sections were immersed in the Oil Red O staining solution at 37 °C for 15 min, rinsed in 60% 2-propanol for 1 min, and in distilled water for 1 min. Sections were counterstained with Meyer’s hematoxylin. […] The area of red-stained fat droplets was quantified using Image J (National Institutes of Health), and the percentage of the stained area in the total image area was calculated. Nine different parts in three consecutive sections per mouse were analyzed.
Fig. 5 Oil Red O staining of the liver section of mice treated with TH analogs. […] After three weeks of injection, liver tissues were collected, frozen sections were prepared, and subjected to Oil Red O staining (a). Stained areas were quantified and normalized to the total image area. […]

[5] = HFD mice, i.p., dose not given (0.1 or 1 µmol/kg day), 3 weeks
[6] = 0.1 µmol dose group vs. Vehicle

## Cc1cc(OCC(=O)O)cc(C)c1Cc1ccc(O)c(C(C)C)c1 [GC-1]
[1]; 0.1 µmol, HFD mice
  Liver TC (Fig. 4c), individual mouse values: 1.641 and 1.677 and 1.869 and 2.323 and 2.266 and 1.713 and 1.915 and 2.417 and 2.05 and 2.041
  Liver TG (Fig. 4d), individual mouse values: 24.1421 and 24.9345 and 16.7281 and 53.1111 and 43.7729 and 30.8738 and 30.6856 and 28.2214 and 34.8729 and 73.7669
  Total lipid, liver (Fig. 4e), individual mouse values: 14.6 and 17.3 and 14 and 22.6 and 24.3 and 18.1 and 18.3 and 16.9 and 17.5 and 26.9
  Mean (Fig. 4c): 1.991
  Mean (Fig. 4d): 36.11
[1]; 1 µmol, HFD mice
  Liver TC (Fig. 4c), individual mouse values: 1.533 and 1.874 and 2.437 and 2.533 and 1.78 and 2.383 and 1.435 and 2.474 and 2.396 and 2.183
  Liver TG (Fig. 4d), individual mouse values: 36.2948 and 32.7305 and 46.4896 and 42.7911 and 37.2232 and 76.8394 and 41.2151 and 27.0034 and 47.7732 and 49.1408
  Total lipid, liver (Fig. 4e), individual mouse values: 17.5 and 17.4 and 20.9 and 22.7 and 22.5 and 28.6 and 18.9 and 18.3 and 21 and 19.5
  Mean (Fig. 4c): 2.103
  Mean (Fig. 4d): 43.75
[1]; ND minus 0.1 µmol group
  Mean Diff., ND vs. treated (Fig. 4c): -0.7328
  Mean Diff., ND vs. treated (Fig. 4d): -7.809
[1]; ND minus 1 µmol group
  Mean Diff., ND vs. treated (Fig. 4c): -0.8444
  Mean Diff., ND vs. treated (Fig. 4d): -15.45
[1]; Vehicle minus 0.1 µmol group
  Mean Diff., Vehicle vs. treated (Fig. 4c): -0.4289
  Mean Diff., Vehicle vs. treated (Fig. 4d): 37.27
[1]; Vehicle minus 1 µmol group
  Mean Diff., Vehicle vs. treated (Fig. 4c): -0.5405
  Mean Diff., Vehicle vs. treated (Fig. 4d): 29.63
[1]; [5]
  liver total lipids vs vehicle: significantly decreased
  liver triglycerides vs vehicle: significantly decreased
[1]; HFD mice, 0.1 µmol
  Mean 2 (group mean), Fig. 4e: 19.05
  Mean Diff., Vehicle vs. treatment, Fig. 4e: 14.38
[1]; HFD mice, 1 µmol
  Mean 2 (group mean), Fig. 4e: 20.73
  Mean Diff., Vehicle vs. treatment, Fig. 4e: 12.7

## O=C(O)Cc1cc(C(F)(F)F)c(Cc2ccc(O)c3ccccc23)c(C(F)(F)F)c1 [ZTA-261]
[2]; 0.1 µmol dose group
  Serum ALT (Fig.7a), individual animal values: 6.621 and 5.838 and 5.844 and 8.207 and 7.718 and 6.528 and 9.431 and 12.922 and 7.155 and 6.407
  Serum ALT, group mean (Mean 2): 7.667
[2]; [6]
  Serum ALT, Tukey's multiple comparisons test, Mean Diff. (Vehicle vs. compound): 3.439
[2]; 1 µmol dose group
  Serum ALT (Fig.7a), individual animal values: 16.644 and 8.576 and 9.103 and 8.327 and 7.596 and 9.601 and 12.863 and 9.311 and 13.948 and 12.038
  Serum ALT, group mean (Mean 2): 10.8
[2]; 1 µmol dose group vs. Vehicle
  Serum ALT, Tukey's multiple comparisons test, Mean Diff. (Vehicle vs. compound): 0.3054
[2]; i.p. 0.1 µmol/kg day
  serum ALT level vs vehicle: did not show a significant increase
[2]; i.p. 1 µmol/kg day
  serum ALT level vs vehicle: did not show a significant increase
[3]; 0.1 µmol dose group
  Heart weight (Fig. 7b), individual animal values: 120.4 and 125.5 and 128.7 and 142.9 and 126.8 and 139.4 and 134.1 and 147.6 and 135.4 and 150.2
  Heart weight, group mean (Mean 2): 135.1
[3]; [6]
  Heart weight, Tukey's multiple comparisons test, Mean Diff. (Vehicle vs. compound): 1.622
[3]; 1 µmol dose group
  Heart weight (Fig. 7b), individual animal values: 135 and 135.2 and 126.1 and 150.6 and 150.7 and 152.1 and 152.8 and 145.4 and 154.6 and 138.8
  Heart weight, group mean (Mean 2): 144.1
[3]; 1 µmol dose group vs. Vehicle
  Heart weight, Tukey's multiple comparisons test, Mean Diff. (Vehicle vs. compound): -7.408
[3]; i.p. 0.1 µmol/kg day
  heart weight vs vehicle: No such effect
[3]; i.p. 1 µmol/kg day
  heart weight vs vehicle: No such effect
[4]
  Oil Red O-positive area in liver sections vs vehicle: significantly reduced
